Reference: the NIST ThermoML archive (doi:10.1016/j.tca.2008.10.015)

Tests used:
[1] = 101.33 kPa, Liquid, conductivity meter
[2] = molar heat capacity at constant pressure; conditions: 101.33 kPa, Liquid, Small sample (50 mg) DSC

CCCCn1cc[n+](C)c1.F[P-](F)(F)(F)(F)F [1-butyl-3-methylimidazolium hexafluorophosphate]
Conditions | electrical conductivity, [1] [S/m] | molar heat capacity at constant pressure, [2] [J/K/mol]
303.2 K | 0.114 | 412.06
308.2 K | 0.149 | 417.75
313.2 K | 0.193 | 420.59
318.2 K | 0.245 | 423.43
323.2 K | 0.308 | 423.43
328.2 K | 0.383 | 426.27
333.2 K | 0.468 | 429.12
338.2 K | 0.556 | 431.96
343.2 K | 0.664 | 434.8
348.2 K | 0.917 | 440.48
353.2 K | 1.21 | 443.32
358.2 K | – | 443.32

CCCCn1cc[n+](C)c1.COS(=O)(=O)[O-] [1-butyl-3-methylimidazolium methyl sulfate]
Conditions | electrical conductivity, [1] [S/m] | molar heat capacity at constant pressure, [2] [J/K/mol]
303.2 K | 0.217 | 375.47
308.2 K | 0.276 | 380.48
313.2 K | 0.348 | 382.98
318.2 K | 0.43 | 382.98
323.2 K | 0.522 | 385.49
328.2 K | 0.626 | 387.99
333.2 K | 0.741 | 390.49
338.2 K | 0.867 | 393
343.2 K | 1.01 | 393
348.2 K | 1.32 | 398
353.2 K | 1.67 | 398
358.2 K | – | 400.51

CCCCn1cc[n+](C)c1.F[B-](F)(F)F [1-butyl-3-methylimidazolium tetrafluoroborate]
Conditions | electrical conductivity, [1] [S/m] | molar heat capacity at constant pressure, [2] [J/K/mol]
303.2 K | 0.295 | 368.42
308.2 K | 0.364 | 370.68
313.2 K | 0.446 | 372.94
318.2 K | 0.542 | 375.2
323.2 K | 0.651 | 377.46
328.2 K | 0.783 | 379.72
333.2 K | 0.926 | 381.98
338.2 K | 1.08 | 384.24
343.2 K | 1.25 | 386.5
348.2 K | 1.67 | 388.76
353.2 K | 2.18 | 391.02
358.2 K | – | 393.28

CCCCn1cc[n+](C)c1.O=S(=O)([O-])C(F)(F)F [1-butyl-3-methylimidazolium trifluoromethanesulfonate]
Conditions | electrical conductivity, [1] [S/m] | molar heat capacity at constant pressure, [2] [J/K/mol]
303.2 K | 0.23 | 443.96
308.2 K | 0.286 | 443.96
313.2 K | 0.358 | 446.85
318.2 K | 0.437 | 449.73
323.2 K | 0.521 | 452.61
328.2 K | 0.619 | 452.61
333.2 K | 0.724 | 455.5
338.2 K | 0.841 | 458.38
343.2 K | 0.967 | 461.26
348.2 K | 1.25 | 464.14
353.2 K | 1.57 | 467.03
358.2 K | – | 469.91
